Drawing on patent US20060189602A1, “Pyridazinone compounds” (Anadys Pharmaceuticals, Inc., priority 2004, published 2006), this text covers IC50 for 21 molecules.

This experiment addresses HCV NS5B polymerase (Hepatitis C virus genotype 1b, UniProt P26663). The experiment in a line: NS5B Polymerase Inhibition Assay. In kind it is biochemical. As to conditions: 50 nM enzyme, [α-33P]GTP, oligo (rG13)/poly rC, 75 min at 28° C. The method, then:
NS5B Polymerase Inhibition Assay
Compounds were tested for HCV polymerase inhibition. Assays were performed in a 96-well streptavidin-coated FlashPlate using 50 nM enzyme, 0.5 μCi of [α-^33P]GTP, 0.63 μM GTP, and 250 nM 5′biotinylated oligo (rG13)/poly rC in 20 mM Tris-HCl, pH 7.5, 5 mM MgCl2, 20 mM NaCl, 5 mM dithiothreitol, and 0.1 g/L BSA. The reaction was stopped by aspiration after 75 min at 28° C. and the plate was washed several times. After washing, incorporated radioactivity was counted using a Microbeta scintillation counter.

As usually defined, the IC50 is the midpoint of a concentration-inhibition curve. Read a low IC50 as greater potency in that assay.

Chain of HCV NS5B polymerase (P26663 2420-3010): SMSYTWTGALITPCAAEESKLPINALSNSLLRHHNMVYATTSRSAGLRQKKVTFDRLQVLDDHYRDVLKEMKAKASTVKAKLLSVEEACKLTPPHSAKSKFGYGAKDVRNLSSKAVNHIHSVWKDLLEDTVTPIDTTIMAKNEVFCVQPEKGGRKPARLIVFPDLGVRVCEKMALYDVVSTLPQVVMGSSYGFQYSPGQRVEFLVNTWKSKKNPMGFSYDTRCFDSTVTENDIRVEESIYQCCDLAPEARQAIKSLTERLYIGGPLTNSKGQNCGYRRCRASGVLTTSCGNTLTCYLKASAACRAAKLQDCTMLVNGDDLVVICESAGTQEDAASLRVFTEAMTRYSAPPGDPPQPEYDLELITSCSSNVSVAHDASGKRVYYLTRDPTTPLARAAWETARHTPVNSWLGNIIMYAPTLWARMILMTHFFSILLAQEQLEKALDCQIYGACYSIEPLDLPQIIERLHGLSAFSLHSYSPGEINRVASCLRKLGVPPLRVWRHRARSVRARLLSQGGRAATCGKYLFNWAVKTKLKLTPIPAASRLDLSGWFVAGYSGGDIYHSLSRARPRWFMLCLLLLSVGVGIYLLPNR

Molecule `COc1ccc2c(c1)S(=O)(=O)NC(c1c(O)c(-c3cccs3)nn(CCC3CC3)c1=O)=N2` [Compound 3, 2-(2-Cyclopropyl-ethyl)-5-hydroxy-4-(7-methoxy-1,1-dioxo-1,2-di-hydro-1λ^6-benzo[1,2,4]thiadiazin-3-yl)-6-thiophen-2-yl-2H-py-ridazin-3-one] displayed an IC50 of less than 10 µM. Then `COc1ccc2c(c1)S(=O)(=O)NC(c1c(O)c(-c3cccs3)nn(Cc3ccccc3)c1=O)=N2` [Compound 5, 2-Benzyl-5-hydroxy-4-(7-methoxy-1,1-dioxo-1,2-dihydro-1λ^6-ben-zo[1,2,4]thiadiazin-3-yl)-6-thiophen-2-yl-2H-py-ridazin-3-one], with 10 to 50 µM. Then `O=c1c(C2=Nc3ccc(O)cc3S(=O)(=O)N2)c(O)c(-c2cccs2)nn1Cc1ccccc1` [Compound 6, 2-Benzyl-5-hydroxy-4-(7-hydroxy-1,1-dioxo-1,2-dihydro-1λ^6-ben-zo[1,2,4]thiadiazin-3-yl)-6-thiophen-2-yl-2H-pyridazin-3-one], with less than 10 µM. Turning to `O=c1c(C2=Nc3ccc(O)cc3S(=O)(=O)N2)c(O)c(-c2cccs2)nn1CCC1CC1` [Compound 7, 2-(2-Cyclopropyl-ethyl)-5-hydroxy-4-(7-hydroxy-1,1-dioxo-1,2-di-hydro-1λ^6-benzo[1,2,4]thiadiazin-3-yl)-6-thiophen-2-yl-2H-py-ridazin-3-one], the IC50 is less than 10 µM. In turn, `COc1ccc2c(c1)S(=O)(=O)NC(c1c(O)c(-c3ccc(C)s3)nn(CCC(C)C)c1=O)=N2` [Compound 9, 5-Hydroxy-4-(7-methoxy-1,1-dioxo-1,2-dihydro-1λ^6-ben-zo[1,2,4]thiadiazin-3-yl)-2-(3-methyl-butyl)-6-(5-methyl-thio-phen-2-yl)-2H-pyridazin-3-one] came in with an IC50 of 10 to 50 µM. Under `CCCCn1nc(C(C)C)c(O)c(C2=Nc3ccc(OC)cc3S(=O)(=O)N2)c1=O` [Compound 10, 2-Butyl-5-hydroxy-6-isopropyl-4-(7-methoxy-1,1-dioxo-1,2-di-hydro-1λ^6-benzo[1,2,4]thiadiazin-3-yl)-2H-pyridazin-3-one] stands 10 to 50 µM; under `CCCCn1nc(C(C)C)c(O)c(C2=Nc3ccc(O)cc3S(=O)(=O)N2)c1=O` [Compound 11, 2-Butyl-5-hydroxy-4-(7-hydroxy-1,1-dioxo-1,2-dihydro-1λ^6-ben-zo[1,2,4]thiadiazin-3-yl)-6-isopropyl-2H-pyridazin-3-one], less than 10 µM; under `CCCCn1nc(C(C)C)c(O)c(C2=Nc3ccc(OCC(N)=O)cc3S(=O)(=O)N2)c1=O` [Compound 12, 2-[3-(2-Butyl-5-hydroxy-6-isopropyl-3-oxo-2,3-dihydro-py-ridazin-4-yl)-1,1-dioxo-1,2-dihdyro-1λ^6-ben-zo[1,2,4]thiadiazin-7-yloxy]-actamide], less than 10 µM. Then `CCCCn1nc(C(C)(C)CO)c(O)c(C2=Nc3ccc(OC)cc3S(=O)(=O)N2)c1=O` [Compound 14, 2-Butyl-5-hydroxy-6-(2-hydroxy-1,1-dimethyl-ethyl)-4-(7-meth-oxy-1,1-dioxo-1,2-dihydro-1λ^6-benzo[1,2,4]thiadiazin-3-yl)-2H-py-ridazin-3-one], with 10 to 50 µM; and `CCCCn1nc(-c2ccccc2)c(O)c(C2=Nc3ccc(OC)cc3S(=O)(=O)N2)c1=O` [Compound 15, 2-Butyl-5-hydroxy-4-(7-methoxy-1,1-dioxo-1,2-dihydro-1λ^6-ben-zo[1,2,4]thiadiazin-3-yl)-6-phenyl-2H-pyridazin-3-one], with 10 to 50 µM; and `CCCCn1nc(-c2cccs2)c(O)c(C2=Nc3ccc(OC)cc3S(=O)(=O)N2)c1=O` [Compound 17, 2-Butyl-5-hydroxy-4-(7-methoxy-1,1-dioxo-1,2-dihydro-1λ^6-ben-zo[1,2,4]thiadiazin-3-yl)-6-thiophen-2-yl-2H-pyridazin-3-one], with less than 10 µM.

In turn, `O=c1c(C2=Nc3ccc(O)cc3S(=O)(=O)N2)c(O)c(-c2cccs2)nn1Cc1c(F)cccc1Cl` [Compound 19, 2-(2-Chloro-6-fluoro-benzyl)-5-hydroxy-4-(7-hydroxy-1,1-di-oxo-1,2-dihydro-1λ^6-benzo[1,2,4]thiadiazin-3-yl)-6-thio-phen-2-yl-2H-pyridazin-3-one] gave an IC50 of 10 to 50 µM. Take `CC(C)CCn1nc(-c2cccs2)c(O)c(C2=Nc3ccc(OCC(=O)N4CCC(N)C4)cc3S(=O)(=O)N2)c1=O` (stereo not drawn) [Compound 21, 4-{7-[2-(3-Amino-pyrrolidin-1-yl)-2-oxo-ethoxy]-1,1-dioxo-1,2-di-hydro-1λ^6-benzo[1,2,4]thiadiazin-3-yl}-5-hydroxy-2-(3-methyl-butyl)-6-thiophen-2-yl-2H-pyridazin-3-one]: the IC50 was less than 10 µM. `COc1ccc2c(c1)S(=O)(=O)NC(c1c(O)c(C(C)C)nn(CCC(C)C)c1=O)=N2` [Compound 26, 5-Hydroxy-6-isopropyl-4-(7-methoxy-1,1-dioxo-1,2-dihydro-1λ^6-ben-zo[1,2,4]thiadiazin-3-yl)-2-(3-methyl-butyl)-2H-py-ridazin-3-one]: the IC50 was 10 to 50 µM. Then `CC(C)CCn1nc(C(C)C)c(O)c(C2=Nc3ccccc3S(=O)(=O)N2)c1=O` [Compound 27, 4-(1,1-Dioxo-1,2-dihydro-1λ^6-benzo[1,2,4]thiadiazin-3-yl)-5-hy-droxy-6-isopropyl-2-(3-methyl-butyl)-2H-pyridazin-3-one], with 10 to 50 µM; and `COc1ccc2c(c1)S(=O)(=O)NC(c1c(O)c(-c3cccn3C)nn(CCC(C)C)c1=O)=N2` [Compound 28, 5-Hydroxy-4-(7-methoxy-1,1-dioxo-1,2-dihydro-1λ^6-ben-zo[1,2,4]thiadiazin-3-yl)-2-(3-methyl-butyl)-6-(1-methyl-1H-pyr-rol-2-yl)-2H-pyridazin-3-one], with 10 to 50 µM; and `CC(C)CCn1nc(C(C)C)c(O)c(C2=Nc3ccc(O)cc3S(=O)(=O)N2)c1=O` [Compound 29, 5-Hydroxy-4-(7-hydroxy-1,1-dioxo-1,2-dihydro-1λ^6-ben-zo[1,2,4]thiadiazin-3-yl)-6-isopropyl-2-(3-methyl-butyl)-2H-py-ridazin-3-one], with 10 to 50 µM. Under `CC(C)CCn1nc(-c2cccs2)c(O)c(C2=Nc3ccncc3S(=O)(=O)N2)c1=O` [Compound 30, 4-(1,1-Dioxo-1,2-dihydro-1λ^6-pyrido[4,3-e][1,2,4]thiadiazin-3-yl)-5-hy-droxy-2-(3-methyl-butyl)-6-thiophen-2-yl-2H-py-ridazin-3-one] stands less than 10 µM. Under `COc1ccc2c(c1)S(=O)(=O)NC(c1c(O)c(-c3ccco3)nn(CCC(C)C)c1=O)=N2` [Compound 32, 6-Furan-2-yl-5-hydroxy-4-(7-methoxy-1,1-dioxo-1,2-dihydro-1λ^6-ben-zo[1,2,4]thiadiazin-3-yl)-2-(3-methyl-butyl)-2H-py-ridazin-3-one] stands less than 10 µM. Regarding `CC(C)CCn1nc(C(C)C)c(O)c(C2=Nc3ccc(OCC(N)=O)cc3S(=O)(=O)N2)c1=O` [Compound 33, 2-{3-[5-Hydroxy-6-isopropyl-2-(3-methyl-butyl)-3-oxo-2,3-di-hydro-pyridazin-4-yl]-1,1-dioxo-1,2-dihydro-1λ^6-ben-zo[1,2,4]thiadiazin-7-yloxy}-acetamide], the 50% inhibitory concentration (IC50) was less than 10 µM.

With `CCCCn1nc(CCC(C)C)c(O)c(C2=Nc3ccc(OC)cc3S(=O)(=O)N2)c1=O` [Compound 34, 2-Butyl-5-hydroxy-4-(7-methoxy-1,1-dioxo-1,2-dihydro-1λ^6-ben-zo[1,2,4]thiadiazin-3-yl)-6-(3-methyl-butyl)-2H-pyridazin-3-one], the IC50 is less than 10 µM.
